Measurements: patent publication US20020012949A1, “Assay systems for leptin-enhancing agents” (priority 1997, published 2002)

Assays:
GST-SHP1-SH2 = biological target: T1, GST-SHP1-SH2 (Homo sapiens, UniProt P29350); test: Binding to GST-SHP1-SH2 by immunoprecipitation and western blot; conditions: 200 nM GST-SHP1-SH2, 15 nM phosphopeptide or cytoplasmic domain fusion, TBST, 4° C. overnight
T1 construct: Amino acids 2-221 of SHP1 were cloned as a EcoRI/BglII fragment into pGEX-3X; made in house; host or cells: E. coli
T1 sequence (P29350 2-221): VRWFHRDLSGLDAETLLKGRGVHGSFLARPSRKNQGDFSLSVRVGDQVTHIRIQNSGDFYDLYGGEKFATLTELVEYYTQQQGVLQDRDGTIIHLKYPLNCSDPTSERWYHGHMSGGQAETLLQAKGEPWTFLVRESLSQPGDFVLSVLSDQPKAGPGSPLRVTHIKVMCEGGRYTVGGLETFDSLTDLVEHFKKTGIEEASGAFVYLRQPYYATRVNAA
Procedure: The GST-SHP1-SH2 construct consists of the two SH2 domains of SHP1fused downstream of GST. Amino acids 2-221 of SHP1 were cloned as a EcoRI/BglII fragment into pGEX-3X and expressed in E. coli.
(§1) Bindings were done as immunoprecipitations. Binding concentrations were typically 200 nM GST-SHP2-SH2 or GST-SHP1-SH2 and 15 nM phosphopeptide or cytoplasmic domain fusion in TBST (20 mM Tris, 150 mM NaCl, 0.1% Tween 20, pH 7.4) at 4° C. overnight. After binding either anti-flag mAb, M2, was added (for the phosphopeptide and flag tagged GST-OB-R-cyto) or anti-myc mAb, 9E10, was added (for the myc tagged GST-OB-R-cyto) and the proteins were precipitated with protein G-sepharose. Proteins were then detected on western blots using anti-GST polyclonal antibodies. For the EPOR-cyto-Trx fusion, the protein complexes were precipitated with glutathione-sepharose and the EPOR-cyto-Trx fusion was detected with anti-Trx polyclonal antibodies.

[1] = test system: EPOR-cyto-Trx and GST-SHP1-SH2; test: Competition of EPOR-cyto-Trx for GST-SHP1-SH2 binding; conditions: 4 μM peptide, 15 nM EPOR-cyto-P, 200 nM GST-SHP1-SH2
Procedure: FIG. 10. Competition for GST-SHP1-SH2 or GST-SHP2-SH2 binding to EPOR-cyto-P by a phosphopeptide derived from the sequence surrounding Y401 of the cytoplasmic domain of the EPO receptor. 200 nM GST-SHP1-SH2 or GST-SHP2-SH2, 15 nM EPOR-cyto-P, with and without 4 μM peptide were incubated together. GST-SHP1-SH2 or GST-SHP2-SH2 was immunoprecipitated with Glutathione Sepharose (Pharmacia), and co-precipitating EPOR-cyto-P was visualized with an anti-Trx antibody.
as §1
In this competition the complexes were precipitated with glutathione-sepharose and the EPOR-cyto-Trx was detected by western blot using anti-Trx antibodies. […]

[2] = biological target: T2, TOBR (TrkC-OB-R chimeric receptor) (Homo sapiens, UniProt P48357+Q16288); test: Luciferase reporter gene assay, TrkC-OB-R chimeric receptor TOBR in neuroblastoma (NBFL) cells; type: cell-based; conditions: NT-3 at 20 ng/ml for 36 hours
T2 construct: TrkC (amino acids 1 to 458) to the cytoplasmic domain of OB-R (amino acids 865-1165); expressed in transfected cells; host or cells: NBFL neuroblastoma cells

TOBRY986F = biological target: T3, TOBRY986F (Homo sapiens, UniProt P48357+Q16288, Y986F); test: Luciferase reporter gene assay, TrkC-OB-R chimeric receptor TOBRY986F in neuroblastoma (NBFL) cells; type: cell-based; conditions: NT-3 at 20 ng/ml for 36 hours
T3 construct: TrkC (amino acids 1 to 458) to the cytoplasmic domain of OB-R (amino acids 865-1165); expressed in transfected cells; host or cells: NBFL neuroblastoma cells

[3] = biological target: T4, TrkC--OB-R chimera (TOBR) (Homo sapiens, UniProt P48357+Q16288); test: Immunoprecipitation and western blotting of tyrosine phosphorylation, NT-3-stimulated COS cells expressing TOBR; type: cell-based; conditions: 50 ng/ml human NT-3 for 15 min
T4 construct: TrkC (amino acids 1 to 458) to the cytoplasmic domain of OB-R (amino acids 865-1165); expressed in transfected cells; host or cells: COS-7
Procedure: The cytoplasmic domain and full-length human OB-R was cloned by PCR using human fetal liver and adipocyte cDNA (Clontech) and cloned into the expression vectors pCMX and pMT21. Chimeric receptors were constructed by fusing the extracellular domain and transmembrane domain of TrkC (amino acids 1 to 458) to the cytoplasmic domain of OB-R (amino acids 865-1165). A triple myc epitope tag was added at the C-terminus of all OB-R constructs (18). Truncation and point mutant constructs were generated by PCR and the sequences of all constructs were verified. Expression constructs were transfected into COS-7 cells using lipofectamine (GIBCO-BRL); 36-48 hours after transfection, cells were starved for either 2 hour,s for chimeric receptors or overnight for full-length receptors prior to stimulation.
Cells were stimulated with 50 ng/ml of human NT-3 for 15 min or 100 ng/ml of human leptin (R&D Systems) for 10 min. Cells were then lysed in a 1% Brij 96 buffer and receptor was immunoprecipitated with anti-myc antibody 9E10 (18) followed by protein G-sepharose (Pharmacia). Unbound lysate was then immunoprecipitated with anti-P-Tyr antibody (UBI, Lake Placid) or agarose-conjugated anti-SHP-2 antibody (Santa Cruz Biotechnology). […] Endogenous STAT3, SHP-2, Jak1 and Jak2 is being detected in all immunoblotting experiments. […]

[4] = biological target: T5, GST-OB-R-cyto/3myc and GST-SHP1-SH2 (Homo sapiens, UniProt P29350); test: Competition for binding of GST-OB-R-cyto/3myc and GST-SHP1-SH2; conditions: 4 μM phosphopeptide, 15 nM cytoplasmic domain, 200 nM GST-SHP1-SH2
T5 construct: Amino acids 2-221 of SHP1 were cloned as a EcoRI/BglII fragment into pGEX-3X; made in house; host or cells: E. coli (OB-R-cyto co-expressed with the ELK tyrosine kinase)
T5 sequence (P29350 2-221): T1 sequence (P29350 2-221)
Procedure: (§2) FIG. 9. Competition for GST-SHP1-SH2 or GST-SHP2-SH2 binding to OB-R-cyto-P by a phosphopeptide containing the sequence surrounding Y986 in OB-R. 200 nM GST-SHP1-SH2 or GST-SHP2-SH2, 15 nM OB-R-cyto-P, with and without 4 μM peptide were incubated together. OB-R-cyto-P was immunoprecipitated with an antibody to the myc epitope tag, and co-precipitating GST-SHP1-SH2 or GST-SHP2-SH2 was visualized with an anti-GST antibody.
as §1, with “After binding either anti-flag mAb, M2, was added (for the phosphopeptide and flag tagged GST-OB-R-cyto) or anti-myc mAb, 9E10, was added (for the myc tagged GST-OB-R-cyto) and the proteins were precipitated with protein G-sepharose.” left out
(§3) In this experiment the SH2 domain, the cytoplasmic domain, and the peptide were mixed and allowed to reach equilibrium. The receptor cytoplasmic domain was precipitated with anti-myc mAb and complexed GST-SHP1-SH2 and GST-SHP2-SH2 were detected by western blot with an anti-GST antibody.

[5] = biological target: T6, GST-OB-R-cyto/3myc and GST-SHP2-SH2 (Homo sapiens, UniProt Q06124); test: Competition for binding of GST-OB-R-cyto/3myc and GST-SHP2-SH2; conditions: 4 μM phosphopeptide, 15 nM cytoplasmic domain, 200 nM GST-SHP2-SH2
T6 construct: The fusion has aa 2-224 of SHP2 cloned as an EcoRI/BamHI fragment into pGEX-3X; made in house; host or cells: E. coli (OB-R-cyto co-expressed with the ELK tyrosine kinase)
T6 sequence (Q06124 2-224): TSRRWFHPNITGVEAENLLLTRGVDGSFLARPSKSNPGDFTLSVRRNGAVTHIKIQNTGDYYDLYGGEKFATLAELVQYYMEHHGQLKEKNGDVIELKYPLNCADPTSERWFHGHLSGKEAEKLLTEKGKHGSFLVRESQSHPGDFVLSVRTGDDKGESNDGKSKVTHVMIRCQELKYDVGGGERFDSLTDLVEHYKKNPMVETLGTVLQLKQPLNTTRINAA
Procedure: as §2
as §1, with “After binding either anti-flag mAb, M2, was added (for the phosphopeptide and flag tagged GST-OB-R-cyto) or anti-myc mAb, 9E10, was added (for the myc tagged GST-OB-R-cyto) and the proteins were precipitated with protein G-sepharose.” left out
as §3

GST-SHP2-SH2 = biological target: T7, GST-SHP2-SH2 (Homo sapiens, UniProt Q06124); test: Binding to GST-SHP2-SH2 by immunoprecipitation and western blot; conditions: 200 nM GST-SHP2-SH2, 15 nM phosphopeptide or cytoplasmic domain fusion, TBST, 4° C. overnight
T7 construct: The fusion has aa 2-224 of SHP2 cloned as an EcoRI/BamHI fragment into pGEX-3X; made in house; host or cells: E. coli
T7 sequence (Q06124 2-224): T6 sequence (Q06124 2-224)
Source text: The GST-SHP2-SH2 construct consists of the two SH2 domains of SHP2fused downstream of glutathione-S-transferase (GST) from Schistosoma japonicum. The fusion has aa 2-224 of SHP2 cloned as an EcoRI/BamHI fragment into pGEX-3X and was expressed in E. coli. The SHP2-SH2-Fc construct consists of the same amino acids as the above fusion fused to human IgG-Fc as a BlpI/SrfI fragment in pMT21 and was expressed in COS-7 cells.
as §1

| binding to GST-SHP1-SH2 (GST-SHP1-SH2) | binding to GST-SHP1-SH2 (GST-SHP1-SH2; listed as synthetic phosphopeptide from EPOR) | competition of EPOR-cyto-Trx for GST-SHP1-SH2 binding [1] | increase in luciferase activity [2] | increase in luciferase activity (TOBRY986F) | competition for binding of GST-OB-R-cyto/3myc and GST-SHP1-SH2 [4] | competition for binding of GST-OB-R-cyto/3myc and GST-SHP2-SH2 [5] | binding to GST-SHP2-SH2 (GST-SHP2-SH2) | Substance | tyrosine phosphorylation of TOBR and downstream signaling molecules [3] |
| --- | --- | --- | --- | --- | --- | --- | --- | --- | --- |
| bound | Very poor binding | a small amount of competition |  |  |  |  |  | CPHLKp-YLYLVVSDDYKDDDDK [EPOR phosphopeptide] |  |
|  |  |  | ~8 fold | ~45 fold |  |  |  | NT-3: neurotrophin-3, surrogate ligand used to activate the TrkC-OB-R chimeric receptors | resulted in ligand-dependent tyrosine phosphorylation |
| bound |  | a small amount of competition |  |  | no competition | no competition | bound specifically | QPFVKp-YATLISNDYKDDDDK [OB-R phosphopeptide] |  |
